Tests used:
454A12 hybridomas = assay: Effect of sodium chloride on IgG production by hybridoma 454A12; type: cell-based, murine
Method: In another experiment, the 454A12 hybridomas were grown in shake flasks with commercially available HL-1 medium (Ventrex) supplemented with 8 mM glutamine. Osmolality of the standard (control) HL-1 medium was 300 mOsmol/kg. In the test sample, the osmolality was increased to 400 mOsmol/kg using sodium chloride. The result of solute stress in the test sample was evidenced by a 50% decrease in maximum cell density. In the stressed condition, the specific IgG production rate per cell increased throughout the culture period The increase in specific productivity was greatest during the post exponential phase period of the culture when specific productivity was more than 60% higher under the stressed condition (FIG. 3).

D-234 = assay: Effect of Na lactate on D-234 growth and IgM production; type: cell-based, human/human/murine trioma
Method: Approximately 1×10^5 cells/ml of D-234 were grown in 250 ml shake flasks (agitated at 100 rpm) in HL-1 medium containing 0.1% Pluronic polyol F-68 and 8 mM glutamine. A 1 M stock solution of sodium lactate (pH 7.4) in HL-1 was added to the medium. A preliminary screen of the effect of a broad range of sodium lactate concentrations (0–100 mM) on D-234 growth and IgM production was run. […] Cell densities at day four were reduced at all levels of lactate tested with a critical drop between 40 and 60 mM.

hybridoma D-234 = assay: Effect of NH4Cl on D-234 growth and IgM production; type: cell-based, human/human/murine trioma; settings: 10 mM NH4Cl
Method: The hybridoma D-234 was grown in HL-1 serum-free medium supplemented with 0.1% Pluronic polyol F-68, 10 mM glutamine and 10 mM NH4Cl. A control was also run without NH4Cl. One hundred ml cultures in 250 ml shake flasks were inoculated at an initial density of 1×10^5 viable cells/ml (91% viability).

[Cl-].[Na+] [sodium chloride]
decrease in maximum cell density (454A12 hybridomas; 400 mOsmol/kg using sodium chloride versus 300 mOsmol/kg control): 50%
increase in specific IgG productivity (454A12 hybridomas; 400 mOsmol/kg using sodium chloride, post exponential phase period): more than 60%

CC(O)C(=O)[O-].[Na+] (stereo not shown) [Na Lactate, sodium lactate]
Total Cell Density (D-234; 20 mM initial lactate, Day 2, 0 mM 4.7): 5.6 1 × 10^5/ml
% Viability (D-234; 20 mM initial lactate, Day 2, 0 mM 95): 96%
IgM (D-234; 20 mM initial lactate, Day 4, 0 mM 10): 20 µg/mL
Total Cell Density (D-234; 20 mM initial lactate, Day 4, 0 mM 21.0): 15.0 1 × 10^5/ml
% Viability (D-234; 20 mM initial lactate, Day 4, 0 mM 90): 92%
IgM (D-234; 20 mM initial lactate, Day 7, 0 mM 24): 35 µg/mL
% Viability (D-234; 40 mM initial lactate, Day 2): 92%
Total Cell Density (D-234; 40 mM initial lactate, Day 2): 5.1 1 × 10^5/ml
% Viability (D-234; 40 mM initial lactate, Day 4): 89%
IgM (D-234; 40 mM initial lactate, Day 4): 22 µg/mL
Total Cell Density (D-234; 40 mM initial lactate, Day 4): 12.9 1 × 10^5/ml
IgM (D-234; 40 mM initial lactate, Day 7): 54 µg/mL
% Viability (D-234; 60 mM initial lactate, Day 2): 93%
Total Cell Density (D-234; 60 mM initial lactate, Day 2): 2.2 1 × 10^5/ml
% Viability (D-234; 60 mM initial lactate, Day 4): 87%
IgM (D-234; 60 mM initial lactate, Day 4): 19 µg/mL
Total Cell Density (D-234; 60 mM initial lactate, Day 4): 4.1 1 × 10^5/ml
IgM (D-234; 60 mM initial lactate, Day 7, control 24): 61 µg/mL
cell density as % of the control (D-234; 80 mM added lactate): 12%
% Viability (D-234; 80 mM initial lactate, Day 2): 81%
Total Cell Density (D-234; 80 mM initial lactate, Day 2): 2.1 1 × 10^5/ml
% Viability (D-234; 80 mM initial lactate, Day 4): 65%
IgM (D-234; 80 mM initial lactate, Day 4): 15 µg/mL
Total Cell Density (D-234; 80 mM initial lactate, Day 4): 2.6 1 × 10^5/ml
IgM (D-234; 80 mM initial lactate, Day 7): 28 µg/mL
% Viability (D-234; 100 mM initial lactate, Day 2): 72%
Total Cell Density (D-234; 100 mM initial lactate, Day 2): 2.2 1 × 10^5/ml
% Viability (D-234; 100 mM initial lactate, Day 4): 50%
IgM (D-234; 100 mM initial lactate, Day 4): 11 µg/mL
Total Cell Density (D-234; 100 mM initial lactate, Day 4): 2.0 1 × 10^5/ml
IgM (D-234; 100 mM initial lactate, Day 7): 14 µg/mL
increase in specific (per cell) productivity (D-234; at 60 mM added lactate): up to 14 fold
effect on growth (D-234; levels of added lactate above 40 mM, screen 0–100 mM): greatly inhibited

Cl.N [NH4Cl, ammonium chloride]
increase in the production of IgM (hybridoma D-234): 2 fold
maximum total cell density (hybridoma D-234; control 2.3×10^6/ml): 1.1e+06 mL⁻¹

Reference: patent US7070960B2, “Method of increasing product expression through solute stress” (Chiron Corporation, priority 1987, dated 2006)
